Reference: US20150105329A1, “Methods and Pharmaceutical Compositions for Prevention or Treatment of Ischemia Related Organ Damage” (INSERM (Institut National de la Sante et de la Recherche …, priority 2012, published 2015)

What was measured:
[1] = test system: myocardial ischemia/reperfusion injury; assay: Myocardial ischemia/reperfusion injury, infarct size; format: in vivo, C57/Bl6J mice; details: for decrease of infarct size vs saline: 30 min ischemia, 3 h reperfusion, p<0.05 vs saline
Description: Adult C57/Bl6J mice of 12-15 weeks old (20-30 g) were anesthetized with sodium pentobarbital (60 mg/kg, i.p.). The animals were intubated and ventilated with 100% oxygen (200 μl/breath at a rate of 170 breaths/min), using a Harvard rodent ventilator (Model 845, Harvard Apparatus, Les Ulis, France). Body temperature was monitored with a rectal probe connected to a digital thermometer, and maintained at 37° C. using a heating pad. A catheter was inserted into the jugular vein for bolus injection of drug (0.01 ml/10 g BW, 10-20 sec). The electrocardiogram (ECG) was recorded throughout the experiments on a Gould TA240 recorder (ECG biotech; Gould Instruments, Cleveland, Ohio, USA). A left thoracotomy was performed to expose the heart, and the pericardium was removed. The left anterior descending coronary artery was occluded with an 8.0 prolene suture, 2 mm from the tip of the left atrium for 30 min. Successful coronary occlusion was verified by the development of a pale color in the distal myocardium and by ST segment elevation and QRS widening on the ECG. After 30 min of sustained ischemia, coronary blood flow was restored by loosening the suture. Successful reperfusion was confirmed by visualization of hyperaemic response and restoration of normal ECG. The lungs were then reinflated by increasing positive end expiratory pressure, and the chest was closed. Reperfusion was maintained for a 3-h period. Drugs dissolved in isotonic saline were injected 5 minutes before reperfusion. B2 receptor agonist was administrated at different non hypotensive dosages as defined in preliminary experiments. To ensure the role of specific activation of B2 receptor, B2 agonist was tested with pretreatment by B2R antagonist (HOE140). After reperfusion, the chest was reopened, the coronary artery was reoccluded, and 0.5 ml of a 5% Evans blue solution was injected as a bolus into the jugular vein in order to delineate the area at risk (AR), which remained unstained by the Evans blue. The heart was excised, and the left ventricle (LV) was isolated, weighed, and sliced into 4 transverse pieces from base to apex, the first cutter blade being positioned at the site of the coronary occlusion. The slices were weighed, and color digital images of both sides of each slice were obtained with a Power Shot S50 zoom digital camera (Canon, Tokyo, Japan) connected to a microscope (Leica M Z 75; Leica Microsystems, Rueil-Malmaison, France), using the Adobe Photoshop software (Adobe Systems, San Jose, Calif., USA). The slices were then incubated at 37° C. with buffered 1% 2,3,5-triphenyltetrazolium chloride (TTC) solution for 20 min. Viable myocardium, which contained dehydrogenases, reacted with TTC and was stained brick red, whereas any necrotic tissue remained unstained due to the lack of active enzymes. The tissue sections were then fixed in a buffered 10% formalin solution for 24 h before being photographed again to delineate the IS. The cross-sectional area, the lumen area, the AR (unstained by Evans blue), and IS (unstained by TTC) of the LV were outlined on each color image and quantified by a masked observer using the Scion Image software (Scion Image for Windows; http://www.scioncorp.com). The absolute weights of AR and IS were then calculated for each slice. The sum of the absolute weight values of AR and IS of the 3 ischemic slices of each heart was calculated and expressed as a percentage of the total weight of the slice. The ratio of IS to AR was calculated from these absolute weight evaluations and expressed as a percentage of AR.

hB2R [2] = molecular target: T1, hB2R (Homo sapiens, UniProt P30411); details: naturally expressed and recombinant hB2R; cited from earlier work
T1 sequence (P30411 1-391): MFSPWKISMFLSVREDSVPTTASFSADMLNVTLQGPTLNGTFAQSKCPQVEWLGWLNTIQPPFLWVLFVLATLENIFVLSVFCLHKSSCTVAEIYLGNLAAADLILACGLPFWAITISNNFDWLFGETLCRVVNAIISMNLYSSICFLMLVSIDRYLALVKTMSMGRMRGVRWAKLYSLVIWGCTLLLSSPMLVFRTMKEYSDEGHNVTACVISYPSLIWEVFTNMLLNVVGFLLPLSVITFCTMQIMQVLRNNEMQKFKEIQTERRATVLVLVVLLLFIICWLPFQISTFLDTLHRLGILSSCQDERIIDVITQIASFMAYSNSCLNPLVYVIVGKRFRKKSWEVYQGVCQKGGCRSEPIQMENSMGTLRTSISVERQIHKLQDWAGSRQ

hB2R [3] = molecular target: T1, hB2R; details: naturally expressed and recombinant hB2R; cited from earlier work; remark: listed apart in the source
[4] = test system: hindlimb ischemia in streptozotocin-diabetic mice; assay: Peripheral (hindlimb) ischemia in diabetic mice, neovascularization; format: in vivo, C57BL/6J mice
Description: Two-to three-month-old male C57BL/6J mice were used. Type 1 diabetes was induced by 5 daily ip injections of low-dose of streptozotocin (50 mg/kg dissolved in 0.05M sodium citrate buffer, pH 4.5). Ischemia of hinlimb was induced by permanent ligation of the right femoral artery once the diabetes is established (hyperglycemia >300 mg/dl, 4 weeks after streptozocin injections). Mice were anesthetized by isoflurane inhalation (0.8% in oxygen stream) and the proximal part of the femoral artery just below the origin of the circumflexa femoris lateralis was occluded with a silk suture. Concomitantly with the surgery, half the mice was treated with the B2 agonist (30 nmol/kg·h^−1), infused continuously through osmotic minipumps implanted subcutaneously. The other half of the mice was infused with the vehicle (isotonic saline). Healthy mice, non diabetic without ischemia were used as control.
Two weeks after the onset of ischemia, neovascularization was evaluated by two methods. —Arteries were quantified by high definition microangiography using barium sulfate and digital X-ray transducer. Mice were anesthetized (Pentobarbital injection, 60 mg/kg, I.P.) and longitudinal laparatomy was performed to introduce a polyethylene catheter into the abdominal aorta to inject contrast medium (Barium sulfate, 1 mg/ml). Images (two per animal) were acquired using a high-definition digital X-ray transducer. Vessel density was expressed as a percentage of pixels per image occupied by vessel density in the quantification area. —Capillary density was analyzed by immunohistochemistry using fibronectin-FITC antibody. Frozen tissue sections (7 μm) from calf muscle were incubated with rabbit polyclonal antibody directed against total fibronectin (dilution 1:50) to identify capillaries. The number of capillary by field was determined in both ischemic and nonischemic legs. Results are expressed as ischemic to nonischemic ratio.

[5] = cited from earlier work
[6] = 30 nmol/kg·h s.c. osmotic minipump, 14 days of ischemia

Substance | effect on infarct size ([1]; antagonist given alone) | effect on cardioprotection by B2 agonist ([1]; pretreatment with B2R antagonist before B2 agonist) | in vitro affinities compared with bradykinin (hB2R [2]) | in vitro potencies compared with bradykinin (hB2R [3]) | angiographic score [4, 6] | capillary density [4, 6] | angiogenic effect ([4]; chronic administration 30 nmol/kg·h, FIG. 2) | decrease of infarct size vs saline ([1]; 0.01 nmol/kg i.v. bolus 5 min before reperfusion) [%] | decrease of infarct size vs saline ([1]; 0.1 nmol/kg i.v. bolus 5 min before reperfusion) [%] | decrease of infarct size vs saline ([1]; 0.3 nmol/kg i.v. bolus 5 min before reperfusion) [%] | infarct size relative to area at risk ([1]; acute administration, FIG. 1) | potency and duration of action in vivo compared with bradykinin [5]
HOE140 | no effect on infarct size | suppressed the cardioprotective effect of B2 agonist |  |  |  |  |  |  |  |  |  | 
[Hyp(3), Thi(5), (N)Chg(7), Thi(8)]-BK [peptide 20] |  |  | greater | greater | increase | increase | proangiogenic effect | −37.2 | −47.3 | −35.6 | Reducing effect | highly superior to bradykinin
